The melting point is the temperature, or range, at which the solid turns liquid.

These results are taken from patent US7196104B2, “Thiazolyl urea compounds and methods of uses” (Amgen, Inc., priority 2000, dated 2007).

As to `O=C(Nc1ccccn1)Nc1csc(-c2ccccn2)n1` [Example 5, N-[2-(2-Pyridinyl)-4-thiazolyl]-N′-2-pyridinylurea], the melting point was in the range of 233 to 235 °C.

`CCCc1cccc(NC(=O)Nc2csc(-c3ccnc(CC)c3)n2)n1` [Example 14, N-[2-(2-Ethyl-4-pyridinyl)-4-thiazolyl]-N′-2-(6-propylpyridinyl)urea]: the melting point lay within 204 to 206 °C.

Turning to `CN1CCN(c2cccc(NC(=O)Nc3csc(-c4ccncc4)n3)n2)CC1` [Example 31, N-[2-(4-Pyridinyl)-4-thiazolyl]-N′-2-[6-(1-methyl-4-piperazinyl)pyridinyl]urea], the melting point lay within 251 to 253 °C.

In turn, `O=C(Nc1cccc(NCCCN2CCOCC2)n1)Nc1csc(-c2ccncc2)n1` [Example 33] had a melting point of 215 to 217 °C.

`NC(=O)c1ccc(NC(=O)Nc2csc(-c3ccncc3)n2)nc1` [Example 34, [[(2-(4-Pyridinyl)-4-thiazolylamino)carbonyl]amino]-2-pyridinyl-5-carboxamide] had a melting point of 255 to 257 °C.

`CN(C)CCNc1cccc(NC(=O)Nc2csc(-c3ccncc3)n2)n1` [Example 35, N-[2-(4-Pyridinyl)-4-thiazolyl]-N′-2-[6-(N″,N″-aminoethylamino)pyridinyl]urea] displayed a melting point of 210 to 212 °C.

The molecule `CC(C)(C)c1cc(NC(=O)Nc2csc(-c3cccnc3)n2)no1` [Example 37, N-[2-(3-Pyridinyl)-4-thiazolyl]-N′-[5-(1,1-dimethylethyl)-3-isoxazolyl]urea] registered a melting point of 230 to 232 °C.

`Cc1ccc(NC(=O)Nc2csc(-c3ccccn3)n2)nc1` [Example 38, N-[2-(2-Pyridinyl)-4-thiazolyl]-N′-2-(5-methylpyridinyl)urea] displayed a melting point of 228 to 230 °C.

`Cc1cc(C)nc(NC(=O)Nc2csc(-c3ccccn3)n2)c1` [Example 40, N-[2-(2-Pyridinyl)-4-thiazolyl]-N′-2-(4,6-dimethylpyridinyl)urea] displayed a melting point of 232 to 234 °C.

As to `Cc1ccc2nc(NC(=O)Nc3csc(-c4ccccn4)n3)sc2c1` [Example 41, N-[2-(2-Pyridinyl)-4-thiazolyl]-N′-2-(6-methylbenzthiazolyl)urea], the melting point fell in the range of 263 to 265 °C.

`Cc1ccnc(NC(=O)Nc2csc(-c3ccccn3)n2)c1` [Example 42, N-[2-(2-Pyridinyl)-4-thiazolyl]-N′-2-(4-methylpyridinyl)urea] displayed a melting point of 217 to 219 °C.

As for `CCc1cccc(NC(=O)Nc2csc(-c3ccccn3)n2)n1` [Example 44, N-[2-(2-Pyridinyl)-4-thiazolyl]-N′-2-(6-ethylpyridinyl)urea], the melting point was in the range of 213 to 215 °C.

For `CCCc1cccc(NC(=O)Nc2csc(-c3ccc(OC)cc3)n2)n1` [Example 45, N-[2-(4-Methoxyphenyl)-4-thiazolyl]-N′-2-(6-propylpyridinyl)urea], the melting point fell in the range of 223 to 225 °C.

`CCCc1cccc(NC(=O)Nc2csc(-c3ccc(O)cc3)n2)n1` [Example 46, N-[2-(4-Hydroxyphenyl)-4-thiazolyl]-N′-2-(6-propylpyridinyl)urea] yielded a melting point of 227 to 229 °C.

For `CCCc1cccc(NC(=O)Nc2csc(-c3cccc(OC)c3)n2)n1` [Example 47, N-[2-(3-Methoxyphenyl)-4-thiazolyl]-N′-2-(6-propylpyridinyl)urea], the melting point was in the range of 192 to 194 °C.

In turn, `COc1cccc(-c2nc(NC(=O)Nc3ccccn3)cs2)c1` [Example 48, N-[2-(3-Methoxyphenyl)-4-thiazolyl]-N′-2-pyridinylurea] had a melting point of 201 to 203 °C.

Regarding `CCc1ccnc(NC(=O)Nc2csc(-c3ccccn3)n2)c1` [Example 50, N-[2-(2-Pyridinyl)-4-thiazolyl]-N′-2-(4-ethylpyridinyl)urea], the melting point was in the range of 196 to 198 °C.

Consider `CCCc1cccc(NC(=O)Nc2csc(-c3ccccn3)n2)n1` [Example 51, N-[2-(2-Pyridinyl)-4-thiazolyl]-N′-2-(6-propylpyridinyl)urea], for which the melting point was in the range of 210 to 212 °C.

`CCCc1cccc(NC(=O)Nc2cccc(-c3ccncc3)c2)n1` [Example 54, N-[3-(4-Pyridinyl)phenyl]-N′-2-(6-propylpyridinyl)urea] showed a melting point of 195 to 198 °C.
